Data from patent US5968967A, “Pyrazolones derivatives” (Nissan Chemical Industries, Ltd., priority 1995, dated 1999).
Counter-ions that a name gives are not always drawn. Like-named read-outs stand apart in the source and are kept apart here.

Tested on: Guinea-pig PRP (platelet aggregation)
Assay: (A) In vitro antiplatelet aggregation effect in guinea pigs (PRP), Table IV-1
Type: cell-based, guinea pig (Hartley male)
Conditions: Cavia porcellus, PRP 300,000/mm^3, 37° C.
Procedure: Nine parts by volume of blood was collected from the abdominal artery of Hartley male guinea-pigs (weight: about 300 g) in syringes containing 1 part by volume of 3.8% sodium citrate. The blood thus obtained was centrifuged at 200×g for 10 minutes at room temperature to obtain platelet rich plasma (PRP). Furthermore, the residue was centrifuged at 2000×g for 15 minutes to obtain platelet poor plasma (PPP). The measurement was effected by diluting PRP with PPP to 300,000/mm^3. PRP and PPP were put in cuvettes, and the measurement range of transmittance was adjusted to 0% in the case of PRP and to 100% in the case of PPP. Thereafter, a test sample drug dissolved in H2 O:MeOH (1:2) was added to PRP. After the PRP was incubated at 37° C. at 1000 rpm for 2 minutes, an aggregating agent was added to record an aggregation curve. The antiplatelet aggregation effect of the test sample drug was expressed by the concentration (IC50 : μM) at which the aggregation of the control sample was 50% inhibited. […] The measurement of platelet aggregation was carried out by using NBS HEMA TRACER 601.
In vitro antiplatelet aggregation tests; (A) and (B) Tables IV-1 and 2 show antiplatelet aggregation effects of test compounds evaluated as IC50 values (μM). The compound Nos. in Table I should be referred to for the structures of the compounds.

[1] = aggregating agent ADP, read-out: Guinea-pig PRP IC50, ADP
[2] = aggregating agent collagen 1 to 2 μg/ml, read-out: Guinea-pig PRP IC50, Collagen

CCOC(=O)COC1CCN(C(=O)c2c(-c3ccc(-c4ccc(Cl)cc4)cc3)n(C)n(-c3ccc(C(=N)N)cc3)c2=O)CC1 [Compound No. 2]
IC50 [1]: 8.1 µM
IC50 [2]: 3.9 µM

Cn1cc(C(=O)N2CCC(OCC(=O)O)CC2)c(=O)n1-c1ccc(C(=N)N)cc1 [Compound No. 10]
IC50 [1]: 35 µM
IC50 [2]: 17 µM

CCOC(=O)COC1CCN(C(=O)c2cn(C)n(-c3ccc(C(=N)N)cc3)c2=O)CC1 [Compound No. 11]
IC50 [1]: 31 µM
IC50 [2]: 17 µM

Cn1c(-c2ccc(C(C)(C)C)cc2)c(C(=O)N2CCC(OCC(=O)O)CC2)c(=O)n1-c1ccc(C(=N)N)cc1 [Compound No. 28, 1-(4-amidinophenyl)-3-(4-t-butylphenyl)-4-([4-(carboxymethyloxy)-1-piperidinyl]carbonyl}-2-methyl-2H-pyrazol-5-one hydrochloride]
IC50 [1]: 25 µM
IC50 [2]: 17 µM

Cn1cc(C(=O)NCCCOCC(=O)O)c(=O)n1-c1ccc(C(=N)N)cc1 [compound 7]
IC50 [1]: 300 µM

CCOC(=O)COCCN(C)C(=O)c1c(-c2ccccc2)n(C)n(-c2ccc(C(=N)N)cc2)c1=O [compound 15]
IC50 [1]: 114 µM
IC50 [2]: 57 µM

Cn1c(-c2ccccc2)c(C(=O)N2CCC(OCC(=O)O)CC2)c(=O)n1-c1ccc(C(=N)N)cc1 [compound 17]
IC50 [1]: 20 µM
IC50 [2]: 23 µM

CCOC(=O)COCCNC(=O)c1c(-c2ccc(-c3ccccc3)cc2)n(C)n(-c2ccc(C(=N)N)cc2)c1=O [compound 20]
IC50 [1]: 30 µM
IC50 [2]: 12 µM

CCOC(=O)COC1CCN(C(=O)c2c(-c3ccc(-c4ccccc4)cc3)n(C)n(-c3ccc(C(=N)N)cc3)c2=O)CC1 [compound 23]
IC50 [1]: 17 µM
IC50 [2]: 9.3 µM

Cn1c(-c2ccc(C(C)(C)C)cc2)c(C(=O)NCCOCC(=O)O)c(=O)n1-c1ccc(C(=N)N)cc1 [compound 24]
IC50 [1]: 46 µM
IC50 [2]: 19 µM

CCOC(=O)COCCNC(=O)c1c(-c2ccc(C(C)(C)C)cc2)n(C)n(-c2ccc(C(=N)N)cc2)c1=O [compound 25]
IC50 [1]: 43 µM
IC50 [2]: 20 µM

Cn1c(-c2ccc(C(C)(C)C)cc2)c(C(=O)NC2CCN(CC(=O)O)CC2)c(=O)n1-c1ccc(C(=N)N)cc1 [compound 109]
IC50 [1]: 3.4 µM
IC50 [2]: 4 µM

CCOC(=O)CN1CCC(NC(=O)c2c(-c3ccc(C(C)(C)C)cc3)n(C)n(-c3ccc(C(=N)N)cc3)c2=O)CC1 [compound 110]
IC50 [1]: 5 µM
IC50 [2]: 3.1 µM

CN(C(=O)c1c(-c2ccc(C(C)(C)C)cc2)n(C)n(-c2ccc(C(=N)N)cc2)c1=O)C1CCN(CC(=O)O)CC1 [compound 111]
IC50 [1]: 11 µM
IC50 [2]: 8.1 µM

CCOC(=O)CN1CCC(N(C)C(=O)c2c(-c3ccc(C(C)(C)C)cc3)n(C)n(-c3ccc(C(=N)N)cc3)c2=O)CC1 [compound 112]
IC50 [1]: 37 µM
IC50 [2]: 14 µM

CCOC(=O)CN(C=O)C1CCN(C(=O)c2c(-c3ccc(C(C)(C)C)cc3)n(C)n(-c3ccc(C(=N)N)cc3)c2=O)CC1 [compound 114]
IC50 [1]: 21 µM
IC50 [2]: 14 µM

CN(CC(=O)O)C1CCN(C(=O)c2c(-c3ccc(C(C)(C)C)cc3)n(C)n(-c3ccc(C(=N)N)cc3)c2=O)CC1 [compound 115]
IC50 [1]: 93 µM
IC50 [2]: 68 µM

CCOC(=O)CN(C)C1CCN(C(=O)c2c(-c3ccc(C(C)(C)C)cc3)n(C)n(-c3ccc(C(=N)N)cc3)c2=O)CC1 [compound 116]
IC50 [2]: 90 µM

Cn1c(-c2ccc(-c3ccccc3)cc2)c(C(=O)NC2CCN(CC(=O)O)CC2)c(=O)n1-c1ccc(C(=N)N)cc1 [compound 125]
IC50 [1]: 42 µM
IC50 [2]: 4.2 µM

CCOC(=O)CN1CCC(NC(=O)c2c(-c3ccc(-c4ccccc4)cc3)n(C)n(-c3ccc(C(=N)N)cc3)c2=O)CC1 [compound 126]
IC50 [1]: 76 µM
IC50 [2]: 7.6 µM

CCCCc1ccc(-c2c(C(=O)N3CCC(OCC(=O)OCC)CC3)c(=O)n(-c3ccc(C(=N)N)cc3)n2C)cc1 [compound 128]
IC50 [1]: 20 µM
IC50 [2]: 7.1 µM
